Tested on: HIF1α signaling
Type: cell-based

Molecule | effect on CoCl2-induced HIF1α signaling | time to induce hypoxia in the entire spheroid [h]
C#Cc1cccc(Nc2ncnc3cc(OCCOC)c(OCCOC)cc23)c1 [Tarceva] | suppressed CoCl2-induced HIF1α signaling | –
COc1cc2c(cc1OC)[C@@H]1C(=O)c3ccc4c(c3O[C@@H]1CO2)C=CC(C)(C)O4 [Deguelin] | no significant effect on HIF1α signaling | –
COc1ccc(C[C@H]2NC[C@H](O)[C@H]2OC(C)=O)cc1 [Anisomycin] | suppressed CoCl2-induced HIF1α signaling | –
PD 168393 | no significant effect on HIF1α signaling | –
Cc1ccc(NC(=O)c2ccc(CN3CCN(C)CC3)cc2)cc1Nc1nccc(-c2cccnc2)n1 [Gleevec] | no significant effect on HIF1α signaling | –
C[S+]([O-])c1ccc(-c2nc(-c3ccncc3)c(-c3ccc(F)cc3)[nH]2)cc1 (centres unmarked) [SB 203580] | no significant effect on HIF1α signaling | –
CCCCCCCCCCC[C@@H](C[C@@H]1OC(=O)[C@H]1CCCCCC)OC(=O)[C@H](CC(C)C)NC=O [Orlistat] | suppressed CoCl2-induced HIF1α signaling | –
COc1cc(C[C@H]2C(=O)OC[C@@H]2Cc2ccc(OC)c(OC)c2)ccc1O [Arctigenin] | suppressed CoCl2-induced HIF1α signaling | –
COc1cc2ncnc(Nc3ccc(F)c(Cl)c3)c2cc1OCCCN1CCOCC1 [Iressa] | suppressed CoCl2-induced HIF1α signaling | –
Nc1ccn([C@@H]2O[C@H](CO)[C@@H](O)C2(F)F)c(=O)n1 [Gemzar] | suppressed CoCl2-induced HIF1α signaling | –
[Cl][Co][Cl] [Cobalt chloride] | – | 6 to 8
